Measured values published in paper PMC6206206, “Behavioral and Pharmacokinetic Profile of Indole-Derived Synthetic Cannabinoids JWH-073 and JWH-210 as Compared to the Phytocannabinoid Δ^9-THC in Rats” (Frontiers in Neuroscience, 2018).

How the values were obtained:
Wistar rats [1] = test: Prepulse inhibition (PPI) of acoustic startle response (ASR); type: in vivo; settings: for alteration of ASR or PPI by acute treatment: all doses tested, sc., 1 h after administration
Description: (§1) All behavioral experiments were performed 1 h after sc. drugs administration.
The PPI of ASR took place in two ventilated startle chambers (SR-LAB, San Diego Instruments, California, USA) which were calibrated to ensure equivalent stabilimeter sensitivity between the chambers. The test consists of acclimatization and two sessions, as previuosly described (Direnberger et al., [2012]; Palenicek et al., [2016]; Tyls et al., [2016]; Hlozek et al., [2017]; Sichova et al., [2017]; Stefkova et al., [2017]). Briefly, acclimatization was performed 2 days before the test, when drug-free rats were habituated in 5 min session with five presentations of pulse alone stimuli (115 dB/20 ms) over background white noise (75 dB). On the day of test, the compounds or vehicle were administered sc. 1 h prior to PPI/ASR testing. After acclimatization (5 min with 75 dB background noise), the test started with a short session of six 40 ms 125 dB pulse trials to establish baseline ASR. It was followed by the second session consisting of trials presented in a pseudorandom order: (1) single pulse alone: 40 ms 125 dB; (2) trial of prepulse-pulse: 20 ms prepulse of 83 dB presented 30, 60, and 120 ms (average 70 ms) before 40 ms 125 dB pulse; (C) 60 ms no stimulus. Finally, six […] 125 dB pulse trials were delivered. Habituation was calculated by the percentage reduction in ASR from the initial six, to the final six pulse trials. PPI was calculated as: [100–(mean prepulse–pulse trials/mean pulse alone trials)^*100]. ASR was derived from mean pulse alone trials. Animals with an AVG response lower than 10 were excluded from further analysis as non-responders.
To evaluate the effect on the locomotion measured in 5 min intervals, two-way repeated measures ANOVA analysis (factor 1: drug; factor 2: time intervals) was used in software system IBM SPSS version 22. […] The total length of the trajectory over 30-min, thigmotaxis and time in the center, ASR, habituation and PPI were analyzed by one-way ANOVA analysis by using software STATISTICA version 9.0. […]

[2] = system: cannabinoid CB1 receptors; settings: cited from earlier work
[3] = Serum levels of JWH-073 and JWH-210 after sc. administration (LC-MS)
Wistar rats [4] = test: Open field test (locomotor activity, thigmotaxis, time in center); type: in vivo; settings: for locomotion in 5 min time intervals (open field): 1 h after administration, vs vehicle
Description: as §1
A square black plastic open field arena (68 × 68 × 30 cm) was placed in a soundproof and diffusely lit room. Each of animals was placed into the center of the arena, in a novel unfamiliar environment, and 1 h after drug administration the behavior was video-recorded for 30 min using the system EthoVision Color pro v. 3.0 (Noldus, NL). Locomotor activity was subsequently analyzed within 5 min blocks/time intervals (1–6). The calculation of the data was performed in the EthoVision software and corrected (smoothed) for movement deviations of < 3 cm. Initially total distance traveled per time block was calculated and data were plotted in the graphs. To evaluate the spatial characteristics of the locomotor activity such as thigmotaxis and time spent in the center of arena, the arena was virtually divided into 5 × 5 identical square zones with 16 located peripherally and nine centrally. Frequency (f) of appearances of the animal in different zones of the arena was used to calculate thigmotaxis (i) (i = ∑fperipheralzones / ∑fallzones) which is a number (value varying from 0 to 1) indicating the probability of appearance in peripheral zones. Time spent in the center of the arena (Tcenter) was calculated Tcenter = ∑timecentralzones (Balikova et al., [2014]; Horsley et al., [2016]; Palenicek et al., [2016]; Tyls et al., [2016]; Hlozek et al., [2017]; Sichova et al., [2017]; Stefkova et al., [2017]).
To evaluate the effect on the locomotion measured in 5 min intervals, two-way repeated measures ANOVA analysis (factor 1: drug; factor 2: time intervals) was used in software system IBM SPSS version 22. Significant main effects and interaction two-way repeated measures ANOVAs were followed with pairwise comparisons using independent t-test. For repeated measures ANOVAs, where Mauchly's test of sphericity was significant, Greenhouse-Geisser [Greenhouse-Geisser estimate of sphericity (ε) < 0.75 or Huynh-Feldt (ε) >0.75] correction are reported. Degrees of freedom were rounded to whole number for presentational purposes. For independent t-test, where Levene's test for equality of variances was significant, statistics corrected for unequal variances are given p < 0.05 (two tailed) was considered the minimal criterion for statistical significance. For multiple comparisons, t-test was used with Bonferroni correction. The total length of the trajectory over 30-min, thigmotaxis and time in the center, ASR, habituation and PPI were analyzed by one-way ANOVA analysis by using software STATISTICA version 9.0. Where appropriate, ANOVA analyses were followed by the Tukey post-hoc test. Statistical significance was set at p < 0.05 for all analyses.

mice = settings: 3–30 mg/kg; ref Marshell et al., 2014; cited from earlier work
[5] = Serum levels of Δ^9-THC and its metabolites after sc. administration (GC-MS); settings: after Δ^9-THC 3 mg/kg sc.; for detectability in serum over the measurement intervals: 30 min, 1, 2, 4, 8, 24 h; for maximum serum concentration (Mean ± SEM): n = 6
[6] = 3 mg/kg sc., vs control, p < 0.01

SMILES: CCCCn1cc(C(=O)c2cccc3ccccc23)c2ccccc21 [JWH-073, (1-butylindol-3-yl)-naphthalen-1-ylmethanone]
- alteration of ASR or PPI by acute treatment (Wistar rats [1]): did not find significant alteration
- CB1 binding affinity relative to Δ^9-THC (fold higher) ([2]; vs Δ^9-THC, ref Wiley et al., 1998, Aung et al., 2000, Brents et al., 2012): four-fold higher
- detectability in serum over the measurement intervals ([3]; 0.5 mg/kg sc., 30 min, 1, 2, 4, 8, 24 h): detectable at all measurement intervals
- maximum serum concentration (Mean ± SEM) ([3]; 0.5 mg/kg sc., rat serum, n = 8): 1.84 ± 0.06 ng/mL
- Tmax ([3]; male, Wistar, rat, serum, sc, 0.5 mg/kg): 4 h
- concentration at 24 h ([3]; male, Wistar, rat, serum, subcutaneous, 0.5 mg/kg): 0.41 ± 0.19 ng/mL
- locomotion in 5 min time intervals (open field) (Wistar rats [4]; 0.1 mg/kg sc.): significantly increased locomotor activity at the 5-10 and 10-15 min time blocks
- locomotion in 5 min time intervals (open field) (Wistar rats [4]; 0.5 mg/kg sc.): increased locomotion at 0–5, 5–10, 10–15, and 20–25 min onset
- total length of the trajectory over 30-min (total locomotor activity) (Wistar rats [4]; 0.5 mg/kg sc., vs control group, p < 0.05): significantly increased locomotor activity
- locomotion in 5 min time intervals (open field) (Wistar rats [4]; 5 mg/kg sc.): reduced the locomotor activity at 15–20 min time block
- thigmotaxis (probability of appearance in peripheral zones) (Wistar rats [4]; 0.1, 0.5 and 5 mg/kg sc.): neither JWH-073 nor JWH-210 modified the thigmotaxis
- time spent in the central zones of the open field (Wistar rats [4]; 0.1, 0.5 and 5 mg/kg sc.): neither JWH-073 nor JWH-210 modified
- locomotor activity (mice): dose-dependent reduced locomotor activity

SMILES: CCCCCc1cc(O)c2c(c1)OC(C)(C)[C@@H]1CCC(C(=O)O)=C[C@@H]21 [THC-COOH]
- detectability in serum over the measurement intervals [5]: detectable as Δ^9-THC at all intervals
- time of maximum serum concentration ([5]; rat serum): 1 h
- maximum serum concentration (Mean ± SEM) ([5]; rat serum): 10.5 ± 7.27 ng/mL

SMILES: CCCCCc1cc(O)c2c(c1)OC(C)(C)[C@@H]1CCC(C)=C[C@@H]21 [Δ^9-THC, Δ9-tetrahydrocannabinol]
- prepulse inhibition (PPI), post-hoc (Wistar rats [1]; 1 mg/kg sc., p = 0.06): slight not significant decrease of PPI
- alteration of ASR or PPI by acute treatment (Wistar rats [1]): did not find significant alteration
- Ki ([2]; ref Huffman et al., 2005, read-out: Ki, affinity for central and peripheral cannabinoid CB1 receptors): 41 ± 2 nM
- thigmotaxis (probability of appearance in peripheral zones) (Wistar rats [4]; [6]): decreased thigmotaxis
- time spent in the center of the open field arena (Wistar rats [4]; [6]): increased time spent in central zone
- total trajectory in the open field test (Wistar rats [4]; 1 or 3 mg/kg sc.): did not affect the total trajectory
- locomotion in 5 min time intervals (open field) (Wistar rats [4]; 1 or 3 mg/kg sc.): neither a main effect of drug nor drug × time interval interaction were found
- detectability in serum over the measurement intervals [5]: detectable as Δ^9-THC at all intervals
- time of maximum serum concentration ([5]; rat serum): 1 h
- time of second serum peak ([5]; rat serum): 8 h
- maximum serum concentration (Mean ± SEM) ([5]; rat serum): 12.1 ± 3.06 ng/mL
